Test results reported in PubChem BioAssay AID328 (DTP/NCI, 2004).
“And” between values parts separate entries of the source, which are not always exact repeats. Equal entries are not always repeated. Toxic doses and inconclusive results are not listed.

Test system: BDF1 mice, P388 leukemia ip, median survival T/C
Test: NCI In Vivo Anticancer Drug Screen. Data for tumor model P388 Leukemia (intraperitoneal) in B6D2F1 (BDF1) mice
Details: endpoint: median survival time, higher = longer survival
Procedure, shortened: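 Transplantable tumour in mice; compound vs vehicle dosing; survival scored; ratio of treated to control reported.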

[1] = dose: 50.0 mg/kg/injection, schedule: Q01DX009 (ip), vehicle: saline with Tween-80
[2] = dose: 100.0 mg/kg/injection, schedule: Q01DX009 (ip), vehicle: saline with Tween-80
[3] = dose: 100.0 mg/kg/injection, schedule: Q04DX003 (ip), vehicle: saline with Tween-80
[4] = dose: 200.0 mg/kg/injection, schedule: Q01DX009 (ip), vehicle: saline with Tween-80
[5] = dose: 200.0 mg/kg/injection, schedule: Q04DX003 (ip), vehicle: saline with Tween-80
[6] = dose: 400.0 mg/kg/injection, schedule: Q04DX003 (ip), vehicle: saline with Tween-80
[7] = dose: 100.0 mg/kg/injection, schedule: Q01DX009 (ip), vehicle: Klucel (hydroxypropylcellulose) (HPC)
[8] = dose: 200.0 mg/kg/injection, schedule: Q01DX009 (ip), vehicle: Klucel (hydroxypropylcellulose) (HPC)

CS(=O)(=O)OCCF
T/C (dose: 1.5 mg/kg/injection, schedule: Q01DX009 (ip), vehicle: saline with Tween-80): 100 % of control
T/C (dose: 1.5 mg/kg/injection, schedule: Q04DX003 (ip), vehicle: saline): 104 % of control
T/C (dose: 3.0 mg/kg/injection, schedule: Q01DX009 (ip), vehicle: saline with Tween-80): 100 % of control
T/C (dose: 3.0 mg/kg/injection, schedule: Q04DX003 (ip), vehicle: saline): 109 % of control

CCOC(=O)/C=C(\C)Nc1ccc(NC(C)=O)cc1
T/C (dose: 25.0 mg/kg/injection, schedule: Q01DX009 (ip), vehicle: water): 91 % of control
T/C (dose: 50.0 mg/kg/injection, schedule: Q01DX009 (ip), vehicle: water): 89 % of control
T/C (dose: 50.0 mg/kg/injection, schedule: Q04DX003 (ip), vehicle: water): 106 % of control
T/C (dose: 100.0 mg/kg/injection, schedule: Q01DX009 (ip), vehicle: water): 94 % of control
T/C (dose: 100.0 mg/kg/injection, schedule: Q04DX003 (ip), vehicle: water): 111 % of control
T/C (dose: 200.0 mg/kg/injection, schedule: Q01DX009 (ip), vehicle: water): 110 % of control
T/C (dose: 200.0 mg/kg/injection, schedule: Q04DX003 (ip), vehicle: water): 120 % of control
T/C (dose: 400.0 mg/kg/injection, schedule: Q01DX009 (ip), vehicle: water): 94 % of control
T/C (dose: 400.0 mg/kg/injection, schedule: Q04DX003 (ip), vehicle: water): 103 % of control

CC(C)(Br)C(=O)c1ccc(Cl)s1
T/C [1]: 101 % of control
T/C [2]: 111 % of control
T/C [3]: 109 % of control
T/C [4]: 119 % of control
T/C [5]: 115 % of control
T/C (dose: 400.0 mg/kg/injection, schedule: Q01DX009 (ip), vehicle: saline with Tween-80): 119 % of control
T/C [6]: 107 % of control

CC(=O)CC(Cl)(C(F)(F)F)C(F)(F)F
T/C (dose: 50.0 mg/kg/injection, schedule: Q04DX003 (ip), vehicle: saline with Tween-80): 100 % of control
T/C [3]: 100 % of control
T/C [5]: 109 % of control

CC(C)(C)C1CC[N-]CC1.CC(C)(C)C1CC[N-]CC1.[Cl][Pt+2][Cl]
T/C (dose: 25.0 mg/kg/injection, schedule: Q01DX009 (ip), vehicle: Klucel (hydroxypropylcellulose) (HPC)): 104 % of control
T/C (dose: 50.0 mg/kg/injection, schedule: Q01DX009 (ip), vehicle: Klucel (hydroxypropylcellulose) (HPC)): 106 % of control
T/C [7]: 117 % of control
T/C [8]: 107 % of control

CCC[As](CCC)SC1OC(COC(C)=O)C(OC(C)=O)C(OC(C)=O)C1OC(C)=O (stereo unspecified)
T/C (dose: 50.0 mg/kg/injection, schedule: Q01DX009 (ip), vehicle: saline + alcohol): 109 % of control

Oc1ccc(OCc2ccccc2)cc1
T/C (dose: 100.0 mg/kg/injection, schedule: Q04DX003 (ip), vehicle: other): 100 % of control
T/C (dose: 200.0 mg/kg/injection, schedule: Q04DX003 (ip), vehicle: other): 104 % of control
T/C (dose: 400.0 mg/kg/injection, schedule: Q04DX003 (ip), vehicle: other): 100 % of control

O=C(NCc1cnccn1)c1ccccc1Cl
T/C [3]: 92 % of control
T/C [5]: 104 % of control
T/C [6]: 100 % of control

CCOC(=O)N1CCN(CCCOc2ccc(Cl)cc2Cc2ccccc2)CC1
T/C [1]: 96 % of control
T/C [2]: 96 % of control
T/C [4]: 105 % of control

O=C(Cn1ccc(=O)[nH]c1=O)Nc1nccs1
T/C (dose: 3.12 mg/kg/injection, schedule: Q04DX003 (ip), vehicle: saline): 93 % of control
T/C (dose: 6.25 mg/kg/injection, schedule: Q04DX003 (ip), vehicle: saline): 107 % of control and 121 % of control
T/C (dose: 12.5 mg/kg/injection, schedule: Q04DX003 (ip), vehicle: saline): 110 % of control and 121 % of control
T/C (dose: 25.0 mg/kg/injection, schedule: Q04DX003 (ip), vehicle: saline): 109 % of control and 121 % of control

CC(c1ccccc1)(c1ccccc1)c1ccccc1
T/C [1]: 101 % of control
T/C [2]: 101 % of control
T/C [4]: 97 % of control

N=C(N)SCc1c2ccccc2c(CSC(=N)N)c2ccccc12
T/C (dose: 2.5 mg/kg/injection, schedule: Q01DX010 (ip), vehicle: saline): 183 % of control
T/C (dose: 5.0 mg/kg/injection, schedule: Q01DX010 (ip), vehicle: saline): 220 % of control
T/C (dose: 10.0 mg/kg/injection, schedule: Q01DX010 (ip), vehicle: saline): 235 % of control and 195 % of control
T/C (dose: 20.0 mg/kg/injection, schedule: Q01DX010 (ip), vehicle: saline): 208 % of control and 215 % of control

O=[N+]([O-])c1ccc(N2CCN(c3ccc(Cl)cc3)CC2)c2c1no[n+]2[O-]
T/C (dose: 15.0 mg/kg/injection, schedule: Q01DX009 (ip), vehicle: saline with Tween-80): 100 % of control
T/C (dose: 30.0 mg/kg/injection, schedule: Q01DX009 (ip), vehicle: saline with Tween-80): 99 % of control
T/C (dose: 60.0 mg/kg/injection, schedule: Q01DX009 (ip), vehicle: saline with Tween-80): 99 % of control

Cc1ccc(CBr)c2ccccc12
T/C (dose: 6.25 mg/kg/injection, schedule: Q01DX009 (ip), vehicle: saline with Tween-80): 102 % of control
T/C (dose: 12.5 mg/kg/injection, schedule: Q01DX009 (ip), vehicle: saline with Tween-80): 114 % of control
T/C (dose: 25.0 mg/kg/injection, schedule: Q01DX009 (ip), vehicle: saline with Tween-80): 124 % of control
T/C [1]: 105 % of control
T/C [2]: 121 % of control

CC1NC(=O)NC1CCCCCC(=O)O (stereo unspecified)
T/C [7]: 95 % of control
T/C (dose: 100.0 mg/kg/injection, schedule: Q04DX003 (ip), vehicle: Klucel (hydroxypropylcellulose) (HPC)): 116 % of control
T/C [8]: 90 % of control
T/C (dose: 200.0 mg/kg/injection, schedule: Q04DX003 (ip), vehicle: Klucel (hydroxypropylcellulose) (HPC)): 104 % of control
T/C (dose: 400.0 mg/kg/injection, schedule: Q01DX009 (ip), vehicle: Klucel (hydroxypropylcellulose) (HPC)): 95 % of control
T/C (dose: 400.0 mg/kg/injection, schedule: Q04DX003 (ip), vehicle: Klucel (hydroxypropylcellulose) (HPC)): 91 % of control

O=P(N1CCOCC1)(N1CC1)N1CC1
T/C (dose: 12.5 mg/kg/injection, schedule: Q01DX009 (ip), vehicle: saline): 251 % of control and 290 % of control
T/C (dose: 25.0 mg/kg/injection, schedule: Q01DX009 (ip), vehicle: saline): 90 % of control

COc1cc2cc3c4cc(OC)c(OC)cc4cc[n+]3cc2cc1OC
T/C (dose: 5.0 mg/kg/injection, schedule: Q01DX009 (ip), vehicle: saline with Tween-80): 109 % of control
T/C (dose: 10.0 mg/kg/injection, schedule: Q01DX009 (ip), vehicle: saline with Tween-80): 118 % of control
T/C (dose: 40.0 mg/kg/injection, schedule: Q01DX009 (ip), vehicle: saline with Tween-80): 159 % of control
T/C (dose: 40.0 mg/kg/injection, schedule: Q04DX003 (ip), vehicle: saline): 163 % of control
T/C (dose: 80.0 mg/kg/injection, schedule: Q04DX003 (ip), vehicle: saline): 174 % of control
T/C (dose: 160.0 mg/kg/injection, schedule: Q01DX009 (ip), vehicle: saline with Tween-80): 154 % of control
T/C (dose: 160.0 mg/kg/injection, schedule: Q04DX003 (ip), vehicle: saline with Tween-80): 154 % of control
T/C (dose: 160.0 mg/kg/injection, schedule: Q04DX003 (ip), vehicle: saline): 166 % of control
T/C (dose: 320.0 mg/kg/injection, schedule: Q04DX003 (ip), vehicle: saline with Tween-80): 122 % of control
T/C (dose: 320.0 mg/kg/injection, schedule: Q04DX003 (ip), vehicle: saline): 120 % of control

Cc1c(CNc2ccc(C(=O)NC(CC(=O)O)CC(=O)O)cc2)ccc2nc(N)nc(N)c12
T/C (dose: 0.19 mg/kg/injection, schedule: Q01DX009 (ip), vehicle: saline): 165 % of control
T/C (dose: 0.37 mg/kg/injection, schedule: Q01DX009 (ip), vehicle: saline): 215 % of control
T/C (dose: 0.75 mg/kg/injection, schedule: Q01DX009 (ip), vehicle: saline): 100 % of control
T/C (dose: 1.5 mg/kg/injection, schedule: Q01DX009 (ip), vehicle: saline): 95 % of control
T/C (dose: 2.0 mg/kg/injection, schedule: Q01DX009 (ip), vehicle: saline): 110 % of control

O=C1C(=C(C(F)(F)F)C(F)(F)F)CCc2ccc([N+](=O)[O-])cc21
T/C [3]: 110 % of control
T/C [6]: 110 % of control
